# Read-outs that look alike come from different tables or passages of the source.
# Assays:
# [1] = Oral pharmacokinetics of CSE constituents in rat plasma (UFLC-MS/MS); format: in vivo, Sprague–Dawley rats; conditions: single oral CSE 40 mg/kg, n = 6, mean ± SEM
# Description: The PK parameters were calculated by non-compartmental analysis. The PK parameters, such as maximum plasma concentration (Cmax) and the time to reach the maximum plasma concentration (Tmax), were derived directly from the experimental data. The trapezoidal equation calculated the areas under the plasma concentration-time curves from 0 to the time of the last quantifiable concentration (AUC0−t). The AUC was extrapolated to infinity AUC0-∞ using Ct/Kel, where Ct is the last measured MET concentration. Kel is the elimination rate constant determined from the terminal slope of the log concentration-time plot. The Kel was obtained from the linear regression curve slope by fitting the terminal concentrations’ natural logarithms versus time. The terminal elimination half-life (t1/2) was calculated by 0.693/Kel. The clearance (CL) was calculated as the quotient of the dose (D) and AUC0−∞. All values were expressed as mean ± SEM.
# Male Sprague–Dawley rats (250–300 g) were purchased from Crystal Biological Solution, Pune, Maharashtra, India. The animal studies were sanctioned by the Animal Ethics Committee of Crystal Biological Solution, Pune. It was carried out following the Animal Ethics Procedures and Guidelines of Control and Supervision of Experiments on Animals (CPCSEA) committee requirements. Animals were housed 3–4 per cage in rooms with constant temperature (25 ± 2 °C), humidity (50 ± 20%), and 12 h dark-light cycle. All animals in the oral group fasted overnight before the dosing, and food was provided 8 h post-dose, and water was ad libitum. The investigational CSE was fed orally to an individual rat as per its body weight.
# The UFLC-MS/MS analysis was performed on a Shimadzu UFLC system (Kyoto, Japan) consisting of a DGU-20A5R degasser, LC-30AD pump, SIL-30AC autosampler, CTO-20AC column oven. The chromatographic separation was carried out in a single analytical run divided into loading and eluting phases by alternating the electronic valve. At the loading phase (−1–0 min), the auto-sampler was responsible for injecting 50 µL of the sample. The LC-30AD pump was responsible for delivering water containing 0.1% formic acid to the pre-column (Phenomenex Security Guard ULTRA with C8 Cartridge) at 0.8 mL/min to remove protein and retain analytes. At the eluting phase (0–12 min), the retained components were flushed from the pre-column into the analytical column (Dr. Maisch GmbH Reprosil Gold XBD C8, 50 mm × 4.6 mm, i.d., 1.8 µm) eluting as per time programmed gradient. The flow rate of the mobile phase was 0.8 mL/min. The mobile phase consists of a mixture of water containing 0.1% formic acid (%v/v) (A) and 100% acetonitrile (B). The gradient elution program was carried out for chromatographic separation: 0.01–1.91 min, 20% B; 1.91–5.91 min, 2090% B; 5.91–6.91 min, 90–80% B; 6.91–8.24 min, 80–20% B; and 8.24–12 min, 20% B. The column oven temperature was set at 30 °C. The MS/MS analysis was carried out on an LCMS-8045 triple-quadrupole mass spectrometer (Shimadzu, Kyoto, Japan) equipped with positive and negative electrospray ionization (ESI) interfaces using the MRM mode. The compound and source dependent parameters were defined as follows: nitrogen was used as nebulizing and drying gas; argon was used as the collision gas. Quadruple voltage was set at Q1 RF gain: 4998 Q1 RF offset 4990 and Q1 post-rod bias: −5.0 V CID CELL exit lens: −4.0 V, interface: ESI, interface temperature: 350 °C, desolvation line (DL) temperature: 250 °C, nebulizing gas flow: 2.50 L/min, heating gas flow: 10.00 L/min heat block: 300 °C; drying gas flow: 10.00 L/min.
# An aliquot of 45 µL of rat plasma was spiked with each 5 µL of IS1 and IS2, and 200 µL of methanol was added, vortexed for 1–2 min, then centrifuged for 10 min at 2000 RPM. Collect the supernatant into HPLC vials and injected it into the UFLC-MS/MS system for analysis. […]
# [2] = Stability of analytes in rat plasma (autosampler, room temperature, freeze-thaw); format: in vitro ADME; conditions: for analyte stability in plasma: LQC and HQC, processed plasma samples, stable under restricted storage conditions; for Room Temperature Stability (%, mean ± SD) / Autosampler Stability (%, mean ± SD) / Freeze-Thaw Stability (%, mean ± SD): rat plasma, n = 6; for Room Temperature Stability (%, mean ± SD): ambient temperature 4 h; for Autosampler Stability (%, mean ± SD): autosampler 8 °C for 24 h; for Freeze-Thaw Stability (%, mean ± SD): three freeze-thaw cycles at −20 ± 4 °C
# Description: The stability was performed at different sets of working and storage conditions. […] The stability conditions of the method studied were at ambient temperature for 4 h (room-temperature stability), in the autosampler at 8 °C conditions for 24 h (autosampler stability), and with three freeze-thaw cycles at −20 ± 4 °C condition (freeze-thaw stability). The samples were prudent to be stable if the measured concentration was within ±15% of the nominal concentration.
# mice = tested on: mice; design: method as in PMID 28471166, PMID 31459089, PMID 33404280; conditions: by inducing autophagy mediated by AMPK pathway activation; cited from earlier work
# [3] = male, Sprague-Dawley, rat, plasma, po, 40 mg/kg
# [4] = male, Sprague-Dawley, rat, plasma, po, 40 mg/kg, read-out: Tmax
Structure (SMILES),"half-life [1, 3] [h]","Tmax [1, 4] [h]","AUC(0-inf) ([1]; male, Sprague-Dawley) [ng·h/mL]","AUC(0-t) ([1]; male, Sprague-Dawley) [ng·h/mL]","Cmax ([1]; male, Sprague-Dawley) [ng/mL]",CL [1],Vd [1] [L/kg],Tmax [1] [h],analyte stability in plasma [2],"Room Temperature Stability (%, mean ± SD) ([2]; nominal 30.00 ng/mL (LQC)) [ng/mL]","Autosampler Stability (%, mean ± SD) ([2]; nominal 30.00 ng/mL (LQC)) [ng/mL]","Freeze-Thaw Stability (%, mean ± SD) ([2]; nominal 30.00 ng/mL (LQC)) [ng/mL]","Room Temperature Stability (%, mean ± SD) ([2]; nominal 2400.00 ng/mL (HQC)) [ng/mL]","Autosampler Stability (%, mean ± SD) ([2]; nominal 2400.00 ng/mL (HQC)) [ng/mL]","Freeze-Thaw Stability (%, mean ± SD) ([2]; nominal 2400.00 ng/mL (HQC)) [ng/mL]",memory function (mice)
"CC(=C/C=C/C=C(C)/C=C/C=C(\C)C(=O)OC1OC(COC2OC(CO)C(O)C(O)C2O)C(O)C(O)C1O)/C=C/C=C(\C)C(=O)OC1OC(COC2OC(CO)C(O)C(O)C2O)C(O)C(O)C1O (stereo not drawn) [C4C, cis-4-GG-crocin]",1.57 ± 1.57,3.25 ± 1.05,407 ± 187,396 ± 113,86.1 ± 15.7,326.37 ± 445.89 mL/h/kg,4.29 ± 1.94,,,,,,,,,
"CC1=C(C=O)C(C)(C)C[C@H](O[C@@H]2O[C@H](CO)[C@@H](O)[C@H](O)[C@H]2O)C1 [PIC, picrocrocin]",0.793 ± 0.078,0.67,3820 ± 257,3690 ± 274,2720 ± 231,1935.88 ± 123.45 mL/h/kg,2.258 ± 0.3168,0.792 ± 0.10,stable,30.40 ± 0.92,29.52 ± 1.26,29.98 ± 1.66,2406.19 ± 94.01,2463.69 ± 113.42,2498.53 ± 111.53,
"CC1=C(C=O)C(C)(C)CC=C1 [SAF, safranal]",,,,,,,,,stable,,,,,,,
"CC(/C=C/C=C(\C)C(=O)OC1OC(CO)C(O)C(O)C1O)=C\C=C\C=C(C)\C=C\C=C(/C)C(=O)OC1OC(CO)C(O)C(O)C1O (stereo not drawn) [T2C, trans-2-gg-crocin]",5.75 ± 0.73,4.34 ± 0.51,1680 ± 238,1530 ± 197,160 ± 15.2,234.77 ± 31.12 mL/h/kg,2.006 ± 0.457,,,,,,,,,
"CC(/C=C/C=C(\C)C(=O)OC1OC(CO)C(O)C(O)C1O)=C\C=C\C=C(C)\C=C\C=C(/C)C(=O)OC1OC(COC2OC(CO)C(O)C(O)C2O)C(O)C(O)C1O (stereo not drawn) [T3C, trans-3-Gg-crocin]",4.6 ± 2.74,3.5 ± 1.09,55.5 ± 31.2,20.4 ± 9.64,7.59 ± 4.71,"114,958.33 ± 71,000.46 mL/h/kg",325.573 ± 13.099,,,,,,,,,
"CC(/C=C/C=C(\C)C(=O)OC1OC(COC2OC(CO)C(O)C(O)C2O)C(O)C(O)C1O)=C\C=C\C=C(C)\C=C\C=C(/C)C(=O)OC1OC(COC2OC(CO)C(O)C(O)C2O)C(O)C(O)C1O (stereo not drawn) [T4C, trans-4-GG-crocin]",3.36 ± 1,3.5 ± 0.57,370 ± 75.6,277 ± 67.7,49.3 ± 11.2,"19,568.35 ± 4835.41 mL/h/kg",69.250 ± 16.150,,,,,,,,,
"CC(/C=C/C=C(\C)C(=O)O)=C\C=C\C=C(C)\C=C\C=C(/C)C(=O)O [TCT, trans crocetin]",> 11,6.83 ± 1.68,30700,23600,2080 ± 374,,,6.84 ± 1.69,stable,,,,,,,improved memory function

# Reference: publication PMC8005090, “Bioanalytical Method Development and Validation Study of Neuroprotective Extract of Kashmiri Saffron Using Ultra-Fast Liquid Chromatography-Tandem Mass Spectrometry (UFLC-MS/MS): In Vivo Pharmacokinetics of Apocarotenoids and Carotenoids” (Molecules, 2021)
